Measured values from ChEMBL document CHEMBL3046191, “Strong resistance to phosphine in the rusty grain beetle, Cryptolestes ferrugineus (Stephens) (Coleoptera: Laemophloeidae): its characterisation, a rapid assay for diagnosis and its distribution in Australia” (2013).
Values after ≈ are worked out from the molar mass of the structure shown.

Key:
[1] = tested on: Cryptolestes ferrugineus; assay: Insecticidal activity against phosphine-weakly resistant Cryptolestes ferrugineus (rusty grain beetle) Lab-WR after 72 hr by FAO method
[2] = tested on: Cryptolestes ferrugineus; assay: Insecticidal activity against phosphine-weakly resistant Cryptolestes ferrugineus (rusty grain beetle) Lab-WR after 48 hr by FAO method
[3] = tested on: Cryptolestes ferrugineus; assay: Insecticidal activity against Cryptolestes ferrugineus (rusty grain beetle) Lab-S after 72 hr by FAO method
[4] = tested on: Cryptolestes ferrugineus; assay: Insecticidal activity against Cryptolestes ferrugineus (rusty grain beetle) Lab-S after 48 hr by FAO method
[5] = tested on: Cryptolestes ferrugineus; assay: Insecticidal activity against phosphine-resistant Cryptolestes ferrugineus (rusty grain beetle) Lab-StR after 72 hr by FAO method
[6] = tested on: Cryptolestes ferrugineus; assay: Insecticidal activity against phosphine-resistant Cryptolestes ferrugineus (rusty grain beetle) Lab-StR after 48 hr by FAO method
[7] = tested on: Cryptolestes ferrugineus; assay: whole plant or invertebrate; conditions: QQCF691, 144 h
Description: Insecticidal activity against strongly phosphine-resistant Cryptolestes ferrugineus (rusty grain beetle) QQCF691 after 144 hr by FAO method

[8] = tested on: Cryptolestes ferrugineus; assay: whole plant or invertebrate; conditions: QNCF134, 144 h
Description: Insecticidal activity against strongly phosphine-resistant Cryptolestes ferrugineus (rusty grain beetle) QNCF134 after 144 hr by FAO method

[9] = tested on: Cryptolestes ferrugineus; assay: whole plant or invertebrate; conditions: QNCF130, 144 h
Description: Insecticidal activity against strongly phosphine-resistant Cryptolestes ferrugineus (rusty grain beetle) QNCF130 after 144 hr by FAO method

[10] = tested on: Cryptolestes ferrugineus; assay: whole plant or invertebrate; conditions: QNCF129, 144 h
Description: Insecticidal activity against strongly phosphine-resistant Cryptolestes ferrugineus (rusty grain beetle) QNCF129 after 144 hr by FAO method

[11] = tested on: Cryptolestes ferrugineus; assay: whole plant or invertebrate; conditions: QNCF122, 144 h
Description: Insecticidal activity against strongly phosphine-resistant Cryptolestes ferrugineus (rusty grain beetle) QNCF122 after 144 hr by FAO method

[12] = tested on: Cryptolestes ferrugineus; assay: whole plant or invertebrate; conditions: QNCF110, 144 h
Description: Insecticidal activity against strongly phosphine-resistant Cryptolestes ferrugineus (rusty grain beetle) QNCF110 after 144 hr by FAO method

[13] = tested on: Cryptolestes ferrugineus; assay: whole plant or invertebrate; conditions: QNCF104, 144 h
Description: Insecticidal activity against strongly phosphine-resistant Cryptolestes ferrugineus (rusty grain beetle) QNCF104 after 144 hr by FAO method

[14] = tested on: Cryptolestes ferrugineus; assay: whole plant or invertebrate; conditions: QNCF102, 144 h
Description: Insecticidal activity against strongly phosphine-resistant Cryptolestes ferrugineus (rusty grain beetle) QNCF102 after 144 hr by FAO method

[15] = tested on: Cryptolestes ferrugineus; assay: whole plant or invertebrate; conditions: QNCF101, 144 h
Description: Insecticidal activity against strongly phosphine-resistant Cryptolestes ferrugineus (rusty grain beetle) QNCF101 after 144 hr by FAO method

[16] = tested on: Cryptolestes ferrugineus; assay: whole plant or invertebrate; conditions: QNCF83, 144 h
Description: Insecticidal activity against strongly phosphine-resistant Cryptolestes ferrugineus (rusty grain beetle) QNCF83 after 144 hr by FAO method

[17] = tested on: Cryptolestes ferrugineus; assay: whole plant or invertebrate; conditions: Lab-WR, 144 h
Description: Insecticidal activity against phosphine-weakly resistant Cryptolestes ferrugineus (rusty grain beetle) Lab-WR after 144 hr by FAO method

[18] = tested on: Cryptolestes ferrugineus; assay: whole plant or invertebrate; conditions: Lab-StR, 144 h
Description: Insecticidal activity against phosphine-resistant Cryptolestes ferrugineus (rusty grain beetle) Lab-StR after 144 hr by FAO method

[19] = tested on: Cryptolestes ferrugineus; assay: whole plant or invertebrate; conditions: Lab-S, 144 h
Description: Insecticidal activity against Cryptolestes ferrugineus (rusty grain beetle) Lab-S after 144 hr by FAO method

**Q.** Which results are given for `P` [PHOSPHINE]?
**A.** LC50 [1]: 0.037 µg/mL (≈ 1.09 µM); LC50 [2]: 0.056 µg/mL (≈ 1.65 µM); LC50 [3]: 0.004 µg/mL (≈ 0.118 µM); LC50 [4]: 0.005 µg/mL (≈ 0.147 µM); LC50 [5]: 6.37 µg/mL (≈ 187 µM); LC50 [6]: 6.57 µg/mL (≈ 193 µM); LC50 [7]: 1.34 µg/mL (≈ 39.4 µM); LC50 [8]: 1.22 µg/mL (≈ 35.9 µM); LC50 [9]: 1.42 µg/mL (≈ 41.8 µM); LC50 [10]: 1.5 µg/mL (≈ 44.1 µM); LC50 [11]: 1.77 µg/mL (≈ 52.1 µM); LC50 [12]: 0.97 µg/mL (≈ 28.5 µM); LC50 [13]: 1.21 µg/mL (≈ 35.6 µM); LC50 [14]: 1.31 µg/mL (≈ 38.5 µM); LC50 [15]: 1.12 µg/mL (≈ 32.9 µM); LC50 [16]: 1.3 µg/mL (≈ 38.2 µM); LC50 [17]: 0.022 µg/mL (≈ 0.647 µM); LC50 [18]: 1.66 µg/mL (≈ 48.8 µM); LC50 [19]: 0.003 µg/mL (≈ 0.0882 µM)
